Test results as given in patent US20150258194A1, “MODULATING TRANSENDOTHELIAL MIGRATION AND RECRUITMENT OF GRANULOCYTES BY MODULATING C-MET PATHWAY” (VIB VZW, priority 2012, published 2015).

Tests used:
[1] = tested on: MET expression in human neutrophils; experiment: Q-PCR / Western blot of MET expression in human neutrophils; type: cell-based; details: Enbrel
Protocol: Western blot: 2×10^6 bone marrow neutrophils from WT mice were stimulated with TCM, CCM, 100 ng/ml of murine TNF-α (or mock medium 0% FBS or 10% FBS as control) for 20 hours at 37° C. For the co-culture with HUVEC, a monolayer of HUVEC was stimulated for 4 hours with 5 ng/ml IL-1 at 37° C., and washed before neutrophil seeding. After 20 hours of stimulation, neutrophils were collected using Cell Dissociation Buffer, Enzyme Free, PBS-Based (Gibco). Cells were washed in PBS, lysed in 15 μl of a protease inhibitor mixture and incubated for 15 minutes on ice. The stock solution was obtained by dissolving one tablet of Complete Mini protease inhibitor mixture (CI, Roche) in 5 ml of PBS with 2 mM diisopropyl fluorophosphate (DFP; Acros Organics, Morris Plains, N.J.). After addition of an equal amount of 2×SDS sample buffer supplemented with 4% 2-mercaptoethanol, the lysates were boiled for 15 minutes and kept at -80° C. until use. […] Cell lysates were sonicated, cleared and quantified. […] Quantitative RT-PCR: for mRNA analysis, 1×10^5 or 3×10^5 mouse or human neutrophils, respectively, were incubated in normoxic (21% oxygen) or hypoxic condition (1% oxygen) or stimulated with TCM (plus 50 μg/ml Enbrel or human IgG when indicated), CCM, A549-CM, 100 ng/ml of murine or human TNF-α, 50 ng/ml LPS, or mock medium in 96-multiwell for 4 hours at 37° C. […]

[2] = tested on: Met expression in neutrophils; experiment: Q-PCR / Western blot of Met expression in mouse neutrophils; type: cell-based
Protocol: Western blot: 2×10^6 bone marrow neutrophils from WT mice were stimulated with TCM, CCM, 100 ng/ml of murine TNF-α (or mock medium 0% FBS or 10% FBS as control) for 20 hours at 37° C. For the co-culture with HUVEC, a monolayer of HUVEC was stimulated for 4 hours with 5 ng/ml IL-1 at 37° C., and washed before neutrophil seeding. After 20 hours of stimulation, neutrophils were collected using Cell Dissociation Buffer, Enzyme Free, PBS-Based (Gibco). Cells were washed in PBS, lysed in 15 μl of a protease inhibitor mixture and incubated for 15 minutes on ice. The stock solution was obtained by dissolving one tablet of Complete Mini protease inhibitor mixture (CI, Roche) in 5 ml of PBS with 2 mM diisopropyl fluorophosphate (DFP; Acros Organics, Morris Plains, N.J.). After addition of an equal amount of 2×SDS sample buffer supplemented with 4% 2-mercaptoethanol, the lysates were boiled for 15 minutes and kept at -80° C. until use. 30×10^6 neutrophils purified from healthy volunteer blood and stimulated with A549-CM, 100 ng/ml of human TNF-α, 50 ng/ml LPS (or mock medium 10% FBS as control) for 20 hours. Cells were incubated with DFP 2.7 mM for 15' at 4° C., collected and washed in PBS, DFP 2.7 mM, CI 1X, and lysed in hot […] buffer (25% SDS 10%, 25% Tris-HCl pH 6.8) at 96° C. for 10'. Cell lysates were sonicated, cleared and quantified. 6× loading buffer was added before loading on the gel. The following antibodies were used: mouse anti-mouse Met (clone 3D4; Invitrogen), mouse anti-mouse β-actin (Santa Cruz), rabbit anti-human Met (clone D1C2-XP; Cell Signaling), HRP-conjugated anti-beta-tubulin (Abcam). Signal was visualized by Enhanced Chemiluminescent Reagents (ECL, Invitrogen) or West Femto by Thermo Scientific according to the manufacturer's instructions. Quantitative RT-PCR: for mRNA analysis, 1×10^5 or 3×10^5 mouse or human neutrophils, respectively, were incubated in normoxic (21% oxygen) or hypoxic condition (1% oxygen) or stimulated with TCM (plus 50 μg/ml Enbrel or human IgG when indicated), CCM, A549-CM, 100 ng/ml of murine or human TNF-α, 50 ng/ml LPS, or mock medium in 96-multiwell for 4 hours at 37° C. 2×10^5 HUVEC were seeded in 24-multiwell coated with 0.1% gelatin and stimulated with 5 ng/ml IL-1 in DMEM 10% FBS for 4 hours at 37° C. Cells were washed in PBS, collected in RLT buffer (QIAGEN®) and kept at -80° C. RNA was extracted with an RNase Micro kit (QIAGEN®) according to manufacturer's instructions. Reverse transcription to cDNA was performed with the SuperScript III Reverse Transcriptase (Invitrogen) according to manufacturer's protocol. […]

Q: Enbrel [reference compound] was tested. Which “Met induction in human neutrophils stimulated with A549-CM” value [1] did it give?
A: Its value is “abolishment of Met induction”.

Q: What about the “Met induction in mouse neutrophils stimulated with TCM” value ([2]; TCM, 50 μg/ml Enbrel) of the same substance?
A: The value was “abolishment of Met induction”.

Q: And the “Met induction in neutrophils upon co-culture with activated ECs” value ([2]; mouse neutrophils, HUVEC (IL-1), TNF-a blockade)?
A: The value was “prevented Met induction”.
